Experimental findings from ChEMBL document CHEMBL1201862, “PubChem BioAssay data set” (2004) are described below.

The structures appear in SMILES notation.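 Five compound concentrations were applied to cells in 96-well plates for 48 hours; endpoints were derived by simple linear interpolation of the resulting dose-response curve. Here, GI50 denotes the concentration required for 50% inhibition of growth.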 The source made the active and inactive calls. Rule as the data show it: active = GI50 up to about 1.1 µM and inactive = higher.

Holding throughout (experiment): growth of human tumour cells (NCI), 48 h
Assay [1] concerns TK-10.
Assay [2] concerns SNB-19.
The subject of assay [3] is CCRF-CEM.
Assay [4] deals with NCI-H23.
In assay [5] the test system is NCI-H522.
The subject of assay [6] is OVCAR-4.
Assay [7] has as its system SN12C.
The subject of assay [8] is MDA-N.
For assay [9], the system named is IGROV-1.
The test system of assay [10] is SW-620.
Assay [11] deals with K562.
Assay [12] relates to HCT-15.
Assay [13] concerns SF-268.
Assay [14] concerns Malme-3M.
For assay [15], the system named is HL-60.
Assay [16] deals with MCF7.
Assay [17] deals with MOLT-4.
The subject of assay [18] is LOX IMVI.
The subject of assay [19] is BT-549.
Assay [20] deals with OVCAR-5.

On to `CCOc1cccc(-c2cc(O)c3cc4c(cc3n2)OCO4)c1`, for which the GI50 is 0.421 µM (active) in assay [1]; 0.321 µM (active) in assay [2]; 0.084 µM (active) in assay [3]; 0.396 µM (active) in assay [4]; 0.0914 µM (active) in assay [5]; 82 µM (inactive) in assay [6]. In addition, the GI50 in assay [7] is 0.191 µM (active); in assay [8], 0.0214 µM (active); in assay [9], 0.548 µM (active); in assay [10] it was 0.0573 µM (active); in [11] it was 0.0516 µM (active); in assay [12], 0.189 µM. Besides, the GI50 was 0.466 µM (active) in assay [13]; 0.141 µM (active) in [14]; 0.044 µM (active) in [15]; 0.673 µM (active) in assay [16]; 0.296 µM (active) in [17]; 0.233 µM (active) in [18].
For the compound `COc1cc(NCC2COc3c(ccc(OC)c3OC)C2=O)c([N+](=O)[O-])cc1OC` (stereo not given), the GI50 is > 100 µM (inactive) in assay [1]; > 10 µM (inactive) in [19]; > 100 µM (inactive) in [2]; 53.2 µM (inactive) in assay [3]; > 100 µM (inactive) in assay [4]; 55.7 µM (inactive) in [5]. For the same compound, the GI50 in assay [20] was > 100 µM (inactive); in assay [6], 82.4 µM (inactive); in assay [7] it was 70.1 µM (inactive); in assay [8], > 100 µM (inactive); in [9] it was > 100 µM (inactive); in assay [10] it was > 100 µM (inactive). The GI50 is 31 µM (inactive) in assay [11]; > 100 µM in [12]; 67.3 µM (inactive) in [13]; 36.8 µM (inactive) in assay [15]; 39.3 µM (inactive) in assay [16]; 16.4 µM (inactive) in [17]. Also, in [18], the GI50 was > 100 µM (inactive).
Regarding `Cc1ccsc1/C=N/Nc1ccc2ccccc2n1`, the GI50 in assay [1] was 19.9 µM (inactive); in [19], 34.4 µM (inactive); in assay [2], 39.4 µM (inactive); in assay [3], 27.5 µM (inactive); in [4] it was 51.1 µM (inactive); in assay [20] it was > 100 µM (inactive). Besides, the GI50 was 29.7 µM (inactive) in assay [6]; > 100 µM (inactive) in assay [7]; 43.4 µM (inactive) in [8]; 8.26 µM (inactive) in assay [9]; 85.1 µM (inactive) in assay [10]; 59.8 µM (inactive) in [11]. Moreover, the GI50 in assay [12] was 24.8 µM; in assay [13], 32.1 µM (inactive); in assay [15], 11.8 µM (inactive); in assay [16], 11.4 µM (inactive); in [17], 8.04 µM (inactive); in assay [18], 24.2 µM (inactive).
As for `CC(C)(C)C(=O)C(C(=O)c1ccccc1)C(=O)C(C)(C)C`, the GI50 in assay [1], in assay [2], in [3], in assay [4], in assay [5] and in [20] was > 100 µM (inactive) each time. Moreover, the GI50 is 64.7 µM (inactive) in assay [6]; > 100 µM (inactive) in assay [7]; > 100 µM (inactive) in assay [8]; > 100 µM (inactive) in assay [9]; > 100 µM (inactive) in assay [10]; > 100 µM (inactive) in [11]. In addition, the GI50 was > 100 µM in assay [12]; > 100 µM (inactive) in assay [13]; > 100 µM (inactive) in assay [14]; > 100 µM (inactive) in [15]; > 100 µM (inactive) in [16]; > 100 µM (inactive) in [17]. In addition, the GI50 in assay [18] is > 100 µM (inactive).
Take `CCC(C)(O)c1cnc(CC(C)C)c(=O)n1O` (stereo not given): the GI50 is 97.7 µM (inactive) in [1]; > 100 µM (inactive) in assay [19]; 55.8 µM (inactive) in [2]; 29.2 µM (inactive) in [3]; 78.2 µM (inactive) in assay [4]; 0.597 µM (active) in assay [20]. Further, the GI50 in assay [6] was 74.3 µM (inactive); in [7], 35.1 µM (inactive); in [8], 73.5 µM (inactive); in assay [9], 63 µM (inactive); in [10], 37.1 µM (inactive); in assay [11], 18.5 µM (inactive). Also, the GI50 is 38 µM in assay [12], 36.8 µM (inactive) in assay [13], 21.4 µM (inactive) in assay [17] and 33.8 µM (inactive) in assay [18].
Turning to `NC1CC=C(COC(=O)C(O)(c2ccccc2)C2CC2)CC1` (stereo not given), the GI50 in assay [1], in assay [2], in [4], in assay [5], in assay [20] and in assay [7] was > 100 µM (inactive) in each case. The GI50 was > 100 µM (inactive) in [8]; > 100 µM (inactive) in assay [9]; > 100 µM (inactive) in assay [10]; > 100 µM in [12]; > 100 µM (inactive) in [13]; > 100 µM (inactive) in assay [14]. The GI50 in [16], in [17] and in assay [18] was > 100 µM (inactive) throughout.
Consider `COC(=O)C(C)(C)NC(=O)C(Cc1ccccc1)Nc1ncnc2c1ncn2-c1ccc(OC)cc1` (stereo not given), for which the GI50 in assay [1] is > 100 µM (inactive); in [19], 40.9 µM (inactive); in assay [2], > 100 µM (inactive); in [3] it was 13.5 µM (inactive); in assay [4] it was 56.8 µM (inactive); in assay [5], 13.1 µM (inactive). The GI50 was 42.2 µM (inactive) in [20]; 12.7 µM (inactive) in assay [6]; 85.1 µM (inactive) in assay [7]; 20.3 µM (inactive) in assay [8]; 15 µM (inactive) in assay [9]; 19.9 µM (inactive) in assay [10]. Further, the GI50 is > 100 µM (inactive) in assay [11]; 34.8 µM in assay [12]; 31 µM (inactive) in [13]; 23 µM (inactive) in [16]; > 10 µM (inactive) in [17]; 34.2 µM (inactive) in [18].
Consider `Cc1ccc(S(=O)(=O)N2CCCSCCN(S(=O)(=O)c3ccc(C)cc3)CCCSCC2)cc1`, for which the GI50 in assay [1], in assay [19], in [2], in assay [4], in [20] and in assay [6] was > 100 µM (inactive) in each case. Further, the GI50 in assay [7], in assay [8], in assay [9], in assay [10], in assay [11] and in assay [13] was > 100 µM (inactive) throughout. The GI50 in assay [15], in [16] and in assay [17] was > 100 µM (inactive) throughout.
As for `CC[C@@H](/C=C\CCC1(C[C@@H](N)CCC=C(C)C)OCCO1)O[Si](C(C)C)(C(C)C)C(C)C`, the GI50 was 17.1 µM (inactive) in assay [1]; 20.1 µM (inactive) in assay [19]; 18.5 µM (inactive) in assay [2]; 11.6 µM (inactive) in assay [3]; 21.1 µM (inactive) in assay [4]; 20 µM (inactive) in assay [5]. For the same compound, the GI50 is 17.2 µM (inactive) in [20]; 19.1 µM (inactive) in assay [6]; 17.3 µM (inactive) in assay [7]; 16.4 µM (inactive) in [8]; 15.8 µM (inactive) in assay [9]; 21.7 µM (inactive) in assay [10]. Besides, the GI50 in [11] was 10.8 µM (inactive); in assay [12] it was 18.9 µM; in [13] it was 19.1 µM (inactive); in [15], 4.28 µM (inactive); in assay [16] it was 16.3 µM (inactive); in assay [17], 17.6 µM (inactive). Also, the GI50 in [18] is 4.97 µM (inactive).
As to `CC1(C)CC[C@]2(C(=O)O)CC[C@]3(C)C(=CCC4=C5C[C@H](O)[C@H](O)[C@@](C)(CO)[C@@]5(C)CC[C@]43C)[C@@H]2C1`, the GI50 is 53.6 µM (inactive) in [1]; 16 µM (inactive) in assay [2]; 0.944 µM (active) in assay [3]; 37.9 µM (inactive) in [4]; 46.2 µM (inactive) in assay [5]; > 100 µM (inactive) in assay [20]. Besides, the GI50 is 36.7 µM (inactive) in assay [6]; 39.6 µM (inactive) in [7]; 47.4 µM (inactive) in assay [8]; 36.9 µM (inactive) in [9]; 95.1 µM (inactive) in assay [10]; 62.8 µM (inactive) in assay [11]. The GI50 in assay [12] is 38.9 µM; in assay [13], 51.4 µM (inactive); in assay [14] it was 69.2 µM (inactive); in [15], 6.05 µM (inactive); in [16] it was 44.6 µM (inactive); in [17], 47.3 µM (inactive). Also, the GI50 in assay [18] was 35.7 µM (inactive).
With `CC1(C)C[C@@H]2C1CCC1(C)CC2(O)CC[C@H]1O` (stereo not given in full), the GI50 in assay [1], in assay [19], in assay [2], in assay [3], in assay [4] and in assay [5] was > 100 µM (inactive) in each case. Further, the GI50 in assay [20], in assay [6], in assay [7], in assay [9], in assay [10] and in assay [11] was > 100 µM (inactive) throughout. The GI50 is > 100 µM in [12]; > 100 µM (inactive) in assay [13]; > 100 µM (inactive) in assay [14]; > 100 µM (inactive) in [15]; > 100 µM (inactive) in assay [16]; > 100 µM (inactive) in assay [17]. For the same compound, the GI50 in [18] was > 100 µM (inactive).
